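Cells were grown in 96-well plates and exposed to each compound for 48 hours at five concentrations; endpoints were interpolated linearly between bracketing concentrations, or set to the highest concentration if not reached. Abbreviation: GI50, concentration required for 50% inhibition of growth.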 Activity calls are given as the source filed them. Cut-off read from the data, not from the text of the source: active = GI50 up to about 1.1 µM and inactive = higher.

Test in all cases: growth of human tumour cells (NCI), 48 h
In assay [1] the test system is BT-549.
In assay [2] the test system is HCC 2998.
Assay [3] has as its system HCT-116.
Assay [4] relates to HCT-15.
For assay [5], the system named is HT-29.
Assay [6] relates to IGROV-1.
Assay [7] has as its system MDA-MB-231.
The subject of assay [8] is MDA-MB-435.
Assay [9] relates to NCI-H23.
The subject of assay [10] is NCI-H522.
For assay [11], the system named is NCI/ADR-RES.
Assay [12] has as its system OVCAR-3.
Assay [13] relates to OVCAR-4.
The test system of assay [14] is OVCAR-5.
Assay [15] has as its system RPMI-8226.
The test system of assay [16] is SNB-19.
The test system of assay [17] is CCRF-CEM.
Assay [18] concerns HOP-62.

For `N#Cc1c(O)n(-c2ccccc2)c(=O)c2c(N)n[nH]c12`, the GI50 is > 100 µM (inactive) in assay [1]; > 100 µM (inactive) in assay [2]; > 100 µM (inactive) in assay [3]; over 100 µM in assay [4]; > 100 µM (inactive) in [5]; > 100 µM (inactive) in [6]. The GI50 in assay [7] was > 100 µM (inactive); in assay [8] it was > 100 µM (inactive); in [9], > 100 µM (inactive); in assay [10] it was 69.8 µM (inactive); in assay [11], > 100 µM (inactive); in assay [12], > 100 µM (inactive). The GI50 in assay [13], in assay [14], in assay [15] and in [16] was > 100 µM (inactive) in each case.

For the compound `CCO/C(Cc1ccc(Cl)cc1)=N/NC(N)=S`, the GI50 in assay [1] was > 100 µM (inactive); in assay [17] it was > 100 µM (inactive); in [2], > 100 µM (inactive); in assay [3], > 100 µM (inactive); in [4], over 100 µM; in assay [18] it was > 100 µM (inactive). Also, the GI50 in [5], in assay [6], in assay [7], in assay [8], in assay [9] and in assay [11] was > 100 µM (inactive) in each case. The GI50 in assay [12], in assay [13], in [14] and in [16] was > 100 µM (inactive) throughout.

For `O=C(NCCn1ccnn1)Nc1ccccc1`, the GI50 in assay [1] was > 100 µM (inactive); in assay [17] it was > 100 µM (inactive); in [2], > 100 µM (inactive); in [4], over 100 µM; in [18], > 100 µM (inactive); in assay [5] it was > 100 µM (inactive). Also, the GI50 in assay [6], in assay [7], in assay [8], in assay [9], in assay [10] and in assay [11] was > 100 µM (inactive) each time. Besides, the GI50 in assay [14], in [15] and in assay [16] was > 100 µM (inactive) each time.

As for `N#CC(C#N)/N=C/c1ccncc1`, the GI50 in assay [1] is > 100 µM (inactive); in assay [17], 28.7 µM (inactive); in [2], > 100 µM (inactive); in assay [3] it was > 100 µM (inactive); in assay [4] it was over 100 µM; in assay [18] it was > 100 µM (inactive). Also, the GI50 in assay [5], in assay [6], in assay [7], in [8], in assay [9] and in assay [11] was > 100 µM (inactive) throughout. The GI50 in assay [12], in assay [13], in assay [14] and in assay [15] was > 100 µM (inactive) in each case.

For `C1COCCOP2(N3CC3)=NP(N3CC3)(=NP(N3CC3)(N3CC3)=N2)OCCOCCO1` (configuration not stated), the GI50 was > 100 µM (inactive) in assay [1]; 77.3 µM (inactive) in assay [17]; > 100 µM (inactive) in assay [3]; over 100 µM in assay [4]; > 100 µM (inactive) in assay [18]; > 100 µM (inactive) in assay [5]. The GI50 in assay [6], in assay [7], in [8], in assay [9], in assay [10] and in assay [11] was > 100 µM (inactive) each time. In addition, the GI50 in assay [12], in [13], in [14], in [15] and in assay [16] was > 100 µM (inactive) throughout.

`CC(=O)O[C@H]1CC[C@@H](OC(C)=O)[C@H]2[C@H](O)[C@H](O)[C@@H]1n1c(=O)n(-c3ccccc3)c(=O)n12`: the GI50 in assay [1] is > 100 µM (inactive); in [17], > 100 µM (inactive); in assay [3] it was > 100 µM (inactive); in assay [4], over 100 µM; in assay [18], > 100 µM (inactive); in [5], > 100 µM (inactive). The GI50 in assay [6], in assay [7], in assay [8], in assay [9], in assay [10] and in assay [11] was > 100 µM (inactive) each time. Also, the GI50 in assay [12], in [13], in [14], in assay [15] and in [16] was > 100 µM (inactive) throughout.

As for `CC1(C)CC2=C(SC3C=CC=CC3N2)C(=O)C1C(=O)C(N)=O` (configuration not stated), the GI50 in assay [1] was > 100 µM (inactive); in [17] it was > 100 µM (inactive); in assay [2] it was > 100 µM (inactive); in [3], > 100 µM (inactive); in assay [4], over 100 µM; in assay [18], > 100 µM (inactive). The GI50 in assay [5] was > 100 µM (inactive); in [6] it was > 100 µM (inactive); in [7] it was > 100 µM (inactive); in [8], > 100 µM (inactive); in assay [9] it was > 100 µM (inactive); in assay [10] it was 72.3 µM (inactive). The GI50 in assay [11], in assay [12], in [13], in assay [14] and in [16] was > 100 µM (inactive) each time.

With `Cc1ccc(/N=N/c2cc(=O)[nH]c(=O)[nH]2)cc1C`, the GI50 is 13.7 µM (inactive) in assay [1]; 2.2 µM (inactive) in assay [17]; 5.01 µM (inactive) in assay [2]; 5.58 µM (inactive) in assay [3]; 2.85 µM in assay [4]; 17.7 µM (inactive) in assay [18]. The GI50 is 1.97 µM (inactive) in assay [5]; 13.9 µM (inactive) in assay [6]; 11.9 µM (inactive) in [7]; 11.2 µM (inactive) in [8]; 34 µM (inactive) in assay [11]; 1.94 µM (inactive) in [12]. Besides, the GI50 in [13] was 13.9 µM (inactive); in [14], 15.4 µM (inactive); in [15] it was 3.01 µM (inactive); in [16], 17.2 µM (inactive).

`O[C@@H]1C=C[C@]23CCN(Cc4cc5c(cc42)OCO5)[C@@H]3C1`: the GI50 is > 100 µM (inactive) in assay [1]; 48.9 µM (inactive) in assay [17]; 42.8 µM (inactive) in assay [3]; over 100 µM in [4]; 92 µM (inactive) in [18]; 51.5 µM (inactive) in [5]. Further, the GI50 was 44.3 µM (inactive) in assay [6]; 58.2 µM (inactive) in assay [7]; 57 µM (inactive) in assay [8]; > 100 µM (inactive) in assay [9]; 82.4 µM (inactive) in [10]; > 100 µM (inactive) in [11]. The GI50 in [12] was > 100 µM (inactive); in assay [13], 34 µM (inactive); in [14], > 100 µM (inactive); in assay [15], 50.7 µM (inactive); in assay [16], 43.1 µM (inactive).

The values are drawn from ChEMBL document CHEMBL1201862, “PubChem BioAssay data set” (2004).
